Test [1] addresses T1, Full length human recombinant HDAC6 (Homo sapiens, UniProt Q9UBN7).
T1 construct: Full length human recombinant HDAC6 and HDAC11 proteins were expressed in baculoviral system
T1 sequence (Q9UBN7 1-1215): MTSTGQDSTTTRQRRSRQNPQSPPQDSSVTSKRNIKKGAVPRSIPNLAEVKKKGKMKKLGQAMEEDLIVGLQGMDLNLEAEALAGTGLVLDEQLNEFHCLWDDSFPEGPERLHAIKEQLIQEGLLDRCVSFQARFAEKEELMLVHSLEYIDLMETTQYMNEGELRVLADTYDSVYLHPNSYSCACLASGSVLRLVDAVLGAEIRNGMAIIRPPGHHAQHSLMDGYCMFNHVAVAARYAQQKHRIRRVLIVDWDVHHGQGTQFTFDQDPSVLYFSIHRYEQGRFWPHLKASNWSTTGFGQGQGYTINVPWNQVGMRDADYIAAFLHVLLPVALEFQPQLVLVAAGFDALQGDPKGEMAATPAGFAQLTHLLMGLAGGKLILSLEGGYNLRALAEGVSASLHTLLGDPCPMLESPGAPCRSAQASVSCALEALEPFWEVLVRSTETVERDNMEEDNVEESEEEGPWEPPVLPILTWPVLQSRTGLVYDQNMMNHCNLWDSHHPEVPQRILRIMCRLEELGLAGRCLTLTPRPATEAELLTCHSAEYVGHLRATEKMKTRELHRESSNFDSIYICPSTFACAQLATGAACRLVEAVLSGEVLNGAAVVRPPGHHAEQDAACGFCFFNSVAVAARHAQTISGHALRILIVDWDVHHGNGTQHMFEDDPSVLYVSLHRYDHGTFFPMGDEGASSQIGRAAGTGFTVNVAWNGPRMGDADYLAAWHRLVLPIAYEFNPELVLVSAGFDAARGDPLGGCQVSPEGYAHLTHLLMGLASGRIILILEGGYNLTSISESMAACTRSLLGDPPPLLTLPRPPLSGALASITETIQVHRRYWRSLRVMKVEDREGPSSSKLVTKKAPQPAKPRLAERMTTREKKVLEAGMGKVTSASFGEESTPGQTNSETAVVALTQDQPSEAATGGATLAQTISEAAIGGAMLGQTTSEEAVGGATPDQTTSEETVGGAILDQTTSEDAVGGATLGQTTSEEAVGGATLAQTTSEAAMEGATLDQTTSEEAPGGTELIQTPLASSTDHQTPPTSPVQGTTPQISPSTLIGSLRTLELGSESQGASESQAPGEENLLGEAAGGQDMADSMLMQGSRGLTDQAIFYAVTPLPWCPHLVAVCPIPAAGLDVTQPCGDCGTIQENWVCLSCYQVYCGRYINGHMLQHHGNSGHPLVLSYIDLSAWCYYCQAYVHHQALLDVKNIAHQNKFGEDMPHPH
The test is described as follows: In vitro histone deacetylase assay, enzymatic HDAC6 (electrophoretic mobility shift assay). The format is biochemical. Particulars: 1 nM HDAC6; 2 μM peptide substrate FAM-RHKK(Ac)—NH2; 25° C.; 12 concentrations; read-out: HDAC6 Activity Range (IC50). In outline:
(§1)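 Baculovirus-expressed full-length enzymes (HDAC6 1 nM, FAM-RHKK(Ac)-NH2; HDAC11 10 nM, FAM-RHKK(tri-fluor-Ac)-NH2), 2 μM substrate, HEPES pH 7.5, 25°C, 12-point 3× dilutions. Product/substrate separated by microfluidic mobility shift after SDS quench; IC50 from 4-parameter fit, reported as +/++/+++ bins.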

Test [2] concerns the target T2, Full length human recombinant HDAC11 (Homo sapiens, UniProt Q96DB2).
T2 construct: Full length human recombinant HDAC6 and HDAC11 proteins were expressed in baculoviral system
T2 sequence (Q96DB2 1-347): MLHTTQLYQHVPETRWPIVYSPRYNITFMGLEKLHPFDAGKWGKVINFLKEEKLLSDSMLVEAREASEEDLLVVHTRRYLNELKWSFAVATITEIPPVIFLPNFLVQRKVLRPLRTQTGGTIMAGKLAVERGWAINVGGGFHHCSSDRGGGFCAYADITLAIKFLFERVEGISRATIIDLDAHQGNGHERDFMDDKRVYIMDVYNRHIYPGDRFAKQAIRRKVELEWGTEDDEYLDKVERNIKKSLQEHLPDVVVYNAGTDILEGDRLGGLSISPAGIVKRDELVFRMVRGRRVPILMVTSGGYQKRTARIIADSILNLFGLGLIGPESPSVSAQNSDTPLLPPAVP
The test is described as follows: In vitro histone deacetylase assay, enzymatic HDAC11 (electrophoretic mobility shift assay). The format is biochemical. Particulars: 10 nM HDAC11; 2 μM peptide substrate FAM-RHKK(tri-fluor-Ac)—NH2; 25° C.; 12 concentrations; read-out: HDAC11 Activity Range (IC50). The procedure, abridged:
as §1

In US9637453B2, “3-spirocyclic-6-hydroxamic acid tetralins as HDAC inhibitors” (Forma Therapeutics, Inc., priority 2015, dated 2017) one finds IC50 data, which are given here for 22 compounds.

For `O=C(NO)c1ccc2c(c1)C[C@]1(CC2)CCN(CC2CCC2)C1=O` [Compound I-81, (R)-1′-(cyclobutylmethyl)-N-hydroxy-2′-oxo-3,4-dihydro-1H-spiro[naphthalene-2,3′-pyrrolidine]-7-carboxamide], the 50% inhibitory concentration (IC50) is not above 100 nM in test [1] and more than 500 nM in test [2].
The matching figures for `O=C(NO)c1ccc2c(c1)C[C@@]1(CC2)CCN(c2ccc(Cl)c(Cl)c2)C1=O` [Compound I-112, (S)-1′-(3,4-dichlorophenyl)-N-hydroxy-2′-oxo-3,4-dihydro-1H-spiro[naphthalene-2,3′-pyrrolidine]-7-carboxamide]: not above 100 nM and more than 500 nM.
The matching figures for `O=C(NO)c1ccc2c(c1)C[C@@]1(CC2)CCN(Cc2ccc(F)cc2)C1=O` [Compound I-41, (S)-1′-(4-fluorobenzyl)-N-hydroxy-2′-oxo-3,4-dihydro-1H-spiro[naphthalene-2,3′-pyrrolidine]-7-carboxamide]: not above 100 nM and more than 500 nM.
The corresponding values for `COc1cccc(CN2CCC3(CCc4ccc(C(=O)NO)cc4C3)C2)c1` (centres unmarked) [Compound I-14, N-hydroxy-1′-(3-methoxybenzyl)-3,4-dihydro-1H-spiro[naphthalene-2,3′-pyrrolidine]-7-carboxamide] are not above 100 nM and more than 500 nM.
As to `O=C(NO)c1ccc2c(c1)C[C@]1(CC2)CCN(Cc2ccc(Cl)cn2)C1=O` [Compound I-40, (R)-1′-((5-chloropyridin-2-yl)methyl)-N-hydroxy-2′-oxo-3,4-dihydro-1H-spiro[naphthalene-2,3′-pyrrolidine]-7-carboxamide], the half-inhibitory concentration (IC50) in test [1] and in test [2] was not above 100 nM each time.
Turning to `O=C(NO)c1ccc2c(c1)C[C@@]1(CC2)CCN(Cc2ccccc2)C1=O` [Compound I-35, (S)-1′-benzyl-N-hydroxy-2′-oxo-3,4-dihydro-1H-spiro[naphthalene-2,3′-pyrrolidine]-7-carboxamide], the 50% inhibitory concentration (IC50) is not above 100 nM in test [1] and more than 500 nM in test [2].
The matching figures for `O=C(NO)c1ccc2c(c1)C[C@@]1(CC2)CCN(Cc2ccc(C(F)(F)F)c(F)c2)C1=O` [Compound I-124, (S)-1′-(3-fluoro-4-(trifluoromethyl)benzyl)-N-hydroxy-2′-oxo-3,4-dihydro-1H-spiro[naphthalene-2,3′-pyrrolidine]-7-carboxamide]: not above 100 nM and not above 100 nM.
The matching figures for `O=C(NO)c1ccc2c(c1)C[C@@]1(CCNC1=O)CC2` [Compound I-48, (R)—N-hydroxy-2′-oxo-3,4-dihydro-1H-spiro[naphthalene-2,3′-pyrrolidine]-7-carboxamide]: not above 100 nM and more than 500 nM.
Take `CCN1C[C@]2(CCc3ccc(C(=O)NO)cc3C2)CC1=O` [Compound I-143, (S)-1′-ethyl-N-hydroxy-5′-oxo-3,4-dihydro-1H-spiro[naphthalene-2,3′-pyrrolidine]-7-carboxamide]: the IC50 in test [1] is not above 100 nM; in test [2] it was more than 500 nM.
The corresponding values for `CC#CCN1CC[C@]2(CCc3ccc(C(=O)NO)cc3C2)C1=O` [Compound I-83, (R)-1′-(but-2-yn-1-yl)-N-hydroxy-2′-oxo-3,4-dihydro-1H-spiro[naphthalene-2,3′-pyrrolidine]-7-carboxamide] are not above 100 nM and more than 500 nM.
On to `O=C(NO)c1ccc2c(c1)C[C@@]1(CC2)CCN(c2ccc3c(c2)OCO3)C1=O` [Compound I-115, (S)-1′-(benzo[d][1,3]dioxol-5-yl)-N-hydroxy-2′-oxo-3,4-dihydro-1H-spiro[naphthalene-2,3′-pyrrolidine]-7-carboxamide], for which the concentration for half-maximal inhibition (IC50) in test [1] is not above 100 nM; in test [2], more than 500 nM.
The corresponding values for `CC(C)N1C[C@@]2(CCc3ccc(C(=O)NO)cc3C2)CC1=O` [Compound I-139, (R)—N-hydroxy-1′-isopropyl-5′-oxo-3,4-dihydro-1H-spiro[naphthalene-2,3′-pyrrolidine]-7-carboxamide] are not above 100 nM and more than 500 nM.
The corresponding values for `CS(=O)(=O)N1CCC2(CCc3ccc(C(=O)NO)cc3C2)C1` (centres unmarked) [Compound I-13, N-hydroxy-1′-(methylsulfonyl)-3,4-dihydro-1H-spiro[naphthalene-2,3′-pyrrolidine]-7-carboxamide] are not above 100 nM and more than 500 nM.
The corresponding values for `CC(C)CN1C[C@@]2(CCc3ccc(C(=O)NO)cc3C2)CC1=O` [Compound I-137, (R)—N-hydroxy-1′-isobutyl-5′-oxo-3,4-dihydro-1H-spiro[naphthalene-2,3′-pyrrolidine]-7-carboxamide] are not above 100 nM and more than 500 nM.
In the case of `O=C(NO)c1ccc2c(c1)C[C@]1(CC2)CCN(Cc2ccc(C(F)(F)F)c(F)c2)C1=O` [Compound I-125, (R)-1′-(3-fluoro-4-(trifluoromethyl)benzyl)-N-hydroxy-2′-oxo-3,4-dihydro-1H-spiro[naphthalene-2,3′-pyrrolidine]-7-carboxamide], the half-maximal inhibitory concentration (IC50) in test [1] is not above 100 nM; in test [2] it was 100 to 500 nM.
The corresponding values for `O=C(NO)c1ccc2c(c1)C[C@@]1(CC2)CCN(Cc2cccc(F)c2)C1=O` [Compound I-72, (S)-1′-(3-fluorobenzyl)-N-hydroxy-2′-oxo-3,4-dihydro-1H-spiro[naphthalene-2,3′-pyrrolidine]-7-carboxamide] are not above 100 nM and more than 500 nM.
On to `O=C(NO)c1ccc2c(c1)C[C@@]1(CC2)CCN(c2ccccc2)C1` [Compound I-16, (S)—N-hydroxy-1′-phenyl-3,4-dihydro-1H-spiro[naphthalene-2,3′-pyrrolidine]-7-carboxamide], for which the IC50 in test [1] is not above 100 nM; in test [2] it was more than 500 nM.
On to `CN1C[C@@]2(CCc3ccc(C(=O)NO)cc3C2)CC1=O` [Compound I-130, (R)—N-hydroxy-1′-methyl-5′-oxo-3,4-dihydro-1H-spiro[naphthalene-2,3′-pyrrolidine]-7-carboxamide], for which the IC50 in test [1] is not above 100 nM; in test [2], more than 500 nM.
The matching figures for `O=C(NO)c1ccc2c(c1)CC1(CCNC1)CC2` (centres unmarked) [Compound I-8, N-hydroxy-3,4-dihydro-1H-spiro[naphthalene-2,3′-pyrrolidine]-7-carboxamide]: 100 to 500 nM and more than 500 nM.
The corresponding values for `O=C(NO)c1ccc2c(c1)C[C@]1(CC2)CCN(Cc2ccccc2OC(F)(F)F)C1=O` [Compound I-90, (R)—N-hydroxy-2′-oxo-1′-(2-(trifluoromethoxy)benzyl)-3,4-dihydro-1H-spiro[naphthalene-2,3′-pyrrolidine]-7-carboxamide] are not above 100 nM and not above 100 nM.
The matching figures for `O=C(NO)c1ccc2c(c1)C[C@]1(CC2)CCN(Cc2cccnc2)C1=O` [Compound I-97, (R)—N-hydroxy-2′-oxo-1′-(pyridin-3-ylmethyl)-3,4-dihydro-1H-spiro[naphthalene-2,3′-pyrrolidine]-7-carboxamide]: not above 100 nM and more than 500 nM.
For the compound `CN1CC[C@@]2(CCc3ccc(C(=O)NO)cc3C2)C1=O` [Compound I-121, (S)—N-hydroxy-1′-methyl-2′-oxo-3,4-dihydro-1H-spiro[naphthalene-2,3′-pyrrolidine]-7-carboxamide], the 50% inhibitory concentration (IC50) in test [1] was not above 100 nM; in test [2] it was more than 500 nM.
